Laboratory results reported in the Deep4Chem optical property database.
Where “and” joins values, the source holds several entries; their conditions need not be identical. Equal entries are not always repeated. Values belong to the compound of their own block, whether it stands above or below them.

Experiment: solvent given as SMILES

emission maximum (in CO): 782 nm | emission maximum (in O): 779 nm
SMILES: CC1(C)C(/C=C/C=C/C=C/C=C2/N(c3ccc(S(=O)(=O)[O-])cc3)c3ccc(S(=O)(=O)[O-])cc3C2(C)C)=[N+](c2ccc(S(=O)(=O)[O-])cc2)c2ccc(S(=O)(=O)[O-])cc21

emission maximum (in ClCCl): 483 nm
SMILES: CCCCCCOc1ccc(-c2ccc(/C=C/c3cc(/C=C/c4ccc(-c5ccc(OCCCCCC)cc5)cc4)ncn3)cc2)cc1

emission maximum (in CCO): 474 nm
SMILES: CCOC(=O)c1cc(C(=O)OCC)c2ccc(O)cc2n1

emission maximum (in ClCCl): 460 nm
SMILES: N#C/C(=C\c1ccc(-c2ccncc2)cc1)c1ccc(-c2ccncc2)cc1

emission maximum (in C1CCOC1): 540 nm
SMILES: C[Si](C)(C)c1ccc(-c2ccc(-c3ccc(-c4ccc(-c5ccc([Si](C)(C)C)s5)cc4)c4nsnc34)cc2)s1

emission maximum (in C1CCOC1): 440 nm
SMILES: CC1(C)c2cc(/C=C/c3nc(/C=C/c4ccc5c(c4)C(C)(C)c4cc(N(c6ccccc6)c6ccc7ccccc7c6)ccc4-5)nc(/C=C/c4ccc5c(c4)C(C)(C)c4cc(N(c6ccccc6)c6ccc7ccccc7c6)ccc4-5)n3)ccc2-c2ccc(N(c3ccccc3)c3ccc4ccccc4c3)cc21

emission maximum (in ClCCl): 668 nm
SMILES: CC(C)[Si](C#Cc1ccc(C#Cc2c3cc4ccccc4cc3c(C#C[Si](C(C)C)(C(C)C)C(C)C)c3cc4ccccc4cc23)cc1)(C(C)C)C(C)C

emission maximum (in CS(C)=O): 417 nm
SMILES: O=c1c2cc(S(=O)(=O)Cl)ccc2[nH]c2ccc(S(=O)(=O)Cl)cc12

emission maximum (in C1CCOC1): 405 nm
SMILES: C1=Cc2ccccc2C(=Cc2ccc(-c3cc(-c4ccc(C=C5c6ccccc6C=Cc6ccccc65)cc4)cc(-c4ccc(C=C5c6ccccc6C=Cc6ccccc65)cc4)c3)cc2)c2ccccc21

emission maximum (in ClCCl): 532 nm
SMILES: CCC1=C(C)C2=C(/C=C/c3ccc([N+](=O)[O-])cc3)c3c(C)c(CC)c(C)n3[B-](F)(F)[N+]2=C1C

emission maximum (in C1CCOC1): 448 nm
SMILES: CC(C)(C)c1ccc(-c2c(-c3cccc(N(c4ccccc4)c4ccccc4)c3)c(C#N)c(-c3cccc(N(c4ccccc4)c4ccccc4)c3)c(-c3ccc(C(C)(C)C)cc3)c2-c2ccc(C(C)(C)C)cc2)cc1

emission maximum (in ClCCl): 484 nm
SMILES: Cc1ccc(N(c2ccccc2)c2ccc3ccc4c(N(c5ccccc5)c5ccc(C)cc5)ccc5ccc2c3c54)cc1

emission maximum (in CC#N): 480 nm | emission maximum (in CO): 498 nm | emission maximum (in ClCCl): 477 nm
SMILES: O=C1c2ccccc2-c2c(-c3ccccc3O)[nH]c(=O)n21

emission maximum (in CO): 661 nm | emission maximum (in ClC(Cl)Cl): 675 nm
SMILES: CC[n+]1c(C=C2C(=O)C(C=C3N(C)c4ccccc4C3(C)C)=C2[O-])[se]c2ccccc21

emission maximum (in ClC(Cl)Cl): 708 nm
SMILES: CCCCOC(=O)/C(C#N)=C1\C(=CC2=[N+](C)c3ccccc3C2(C)C)C([O-])=C1C=C1N(C)c2ccccc2C1(C)C

The remaining lines, values behind:

SMILES: CCCCN1C(=O)c2cc(Oc3ccc(C(C)(C)C)cc3)c3c4c(Oc5ccc(C(C)(C)C)cc5)cc5c(=O)n6c(c7cc(Oc8ccc(C(C)(C)C)cc8)c(c8c(Oc9ccc(C(C)(C)C)cc9)cc(c2c38)C1=O)c4c57)=Cc1ccc2ccccc2[n+]1[B-]6(F)F
emission maximum (in ClCCl): 684 nm

SMILES: c1ccc(-n2c3ccccc3c3c2c2ccccc2n3-c2ccccc2)cc1
emission maximum (in Cc1ccccc1): 376 nm

SMILES: CN(C)c1cc(C#N)c(N(C)C)c(C#N)c1
emission maximum (in C1CCCCC1): 495.79 nm | emission maximum (in C1CCOC1): 518.13 nm | emission maximum (in C1COCCO1): 521.65 nm | emission maximum (in CC1COC(=O)O1): 532.48 nm | emission maximum (in CC#N): 529.94 nm | emission maximum (in CC(C)=O): 524.93 nm | emission maximum (in CC(C)OC(C)C): 503.02 nm | emission maximum (in CCC#N): 525.76 nm | emission maximum (in CCC(C)C): 493.58 nm | emission maximum (in CCCCCC): 493.83 nm | emission maximum (in CCCCCCCCO): 523.29 nm | emission maximum (in CCCCCOCCCCC): 505.82 nm | emission maximum (in CCCCOC(C)=O): 516.8 nm | emission maximum (in CCCCOCCCC): 502.26 nm | emission maximum (in CCCOCCC): 507.61 nm | emission maximum (in CCO): 528.26 nm | emission maximum (in CCOC(C)=O): 519.21 nm | emission maximum (in CCOCC): 507.36 nm | emission maximum (in CN(C)C=O): 533.9 nm | emission maximum (in CO): 530.5 nm | emission maximum (in CS(C)=O): 538.21 nm | emission maximum (in Cc1ccccc1): 516.8 nm | emission maximum (in ClCCCl): 523.56 nm | emission maximum (in ClCCl): 522.74 nm | emission maximum (in N#Cc1ccccc1): 529.1 nm | emission maximum (in O): 555.25 nm | emission maximum (in OCC(O)CO): 547.35 nm | emission maximum (in c1ccccc1): 519.48 nm

SMILES: O=Cc1ccc(C2=C3C=c4c(oc5ccccc45)=[N+]3[B-](F)(F)n3c2cc2c4ccccc4oc23)cc1
emission maximum (in C1CCCCC1): 612 nm | emission maximum (in C1CCOC1): 615 nm | emission maximum (in CC#N): 611 nm | emission maximum (in CCOC(C)=O): 610 nm | emission maximum (in CN(C)C=O): 615.5 nm | emission maximum (in CO): 609.5 nm | emission maximum (in Cc1ccccc1): 620.5 nm | emission maximum (in ClCCl): 618.5 nm

SMILES: CCC1=C(C)C(=O)n2c1cc1[nH]c(C(=O)OC(C)(C)C)c(C)c1c2=O
emission maximum (in C1CCCCC1): 443 nm | emission maximum (in CO): 505 nm | emission maximum (in CS(C)=O): 483 nm | emission maximum (in ClC(Cl)Cl): 453 nm | emission maximum (in c1ccccc1): 443 nm

SMILES: CC1(C)C(/C=C/C2=C(Cl)C(=C/C=C3/N(Cc4ccc(C(=O)O)cc4)c4ccccc4C3(C)C)/CCC2)=[N+](Cc2ccc(C(=O)O)cc2)c2ccccc21
emission maximum (in CO): 814 nm

SMILES: CCCOc1ccc(/C=C/C=C/C=C/c2ccc([N+](=O)[O-])cc2)cc1
emission maximum (in CC1CCCCC1): 488 nm | emission maximum (in CC#N): 747 nm | emission maximum (in Cc1ccccc1): 546 nm | emission maximum (in ClCCl): 699 nm

SMILES: c1ccc2nc3cccc(-c4ccc(-n5c6ccccc6c6ccccc65)cc4)c3cc2c1
emission maximum (in C1CCOC1): 466 nm | emission maximum (in CC#N): 527 nm | emission maximum (in CC(C)=O): 497 nm | emission maximum (in CC(C)OC(C)C): 444 nm | emission maximum (in CCCCCC): 434 nm | emission maximum (in CCCCOCCCC): 442 nm | emission maximum (in CCOC(C)=O): 460 nm | emission maximum (in CCOCC): 443 nm | emission maximum (in ClCCl): 486 nm

SMILES: Cc1ccc2c(c1)c1cc(C)ccc1n2-c1c(C#N)c(-n2c3ccc(C)cc3c3cc(C)ccc32)c(-n2c3ccc(C)cc3c3cc(C)ccc32)c(C#N)c1-n1c2ccc(C)cc2c2cc(C)ccc21
emission maximum (in Cc1ccccc1): 561 nm

SMILES: Oc1ccccc1/C=N/c1ccccc1/N=C/c1ccccc1O
emission maximum (in CC#N): 545 nm and 458 nm

SMILES: N#Cc1nc2c3ccc(-n4c5ccccc5c5ccccc54)cc3c3cc(-n4c5ccccc5c5ccccc54)ccc3c2nc1C#N
emission maximum (in C1COCCO1): 568.06 nm | emission maximum (in CCCCCC): 469.61 nm | emission maximum (in Cc1ccccc1): 531 nm | emission maximum (in ClC(Cl)Cl): 612.69 nm | emission maximum (in O=P(c1ccccc1)(c1ccccc1)c1cccc(-c2cc(-n3c4ccccc4c4ccccc43)cc(-n3c4ccccc4c4ccccc43)c2)n1): 560 nm

SMILES: CN(C)c1cccc2c1C(=O)c1ccccc1-2
emission maximum (in C1CCCCC1): 498 nm | emission maximum (in CC#N): 534 nm | emission maximum (in CCO): 541 nm | emission maximum (in c1ccccc1): 520 nm

SMILES: COc1nc(Nc2ccc3c4cccc5cccc(c6cccc2c63)c54)nc(OC)n1
emission maximum (in C1COCCO1): 478 nm | emission maximum (in CC#N): 479 nm | emission maximum (in CCCCOCCCC): 477 nm | emission maximum (in CCOC(C)=O): 477 nm

SMILES: c1ccc(-c2ccc(-c3ccc(-c4ccccc4)cc3)cc2)cc1
emission maximum (in C1CCOC1): 368 nm | emission maximum (in C1COCCO1): 369 nm

SMILES: Cc1ccc2nc3c(=O)n(C)c(=O)nc-3n(C)c2c1
emission maximum (in CC#N): 518 nm

SMILES: O=CC1=C(c2ccc(-c3cccs3)s2)CC1
emission maximum (in C1CCOC1): 470 nm | emission maximum (in CC#N): 493 nm | emission maximum (in CCCCCC): 464 nm | emission maximum (in CCO): 516 nm | emission maximum (in OCCOCCO): 526 nm | emission maximum (in c1ccncc1): 495 nm

SMILES: COc1ccc(C2=CC3=C(c4c(C)cc(C)cc4C)c4cc(-c5ccc(OC)cc5)c(-c5ccc(OC)cc5)n4[B-](F)(F)[N+]3=C2c2ccc(OC)cc2)cc1
emission maximum (in C1CCCCC1): 666 nm | emission maximum (in C1CCOC1): 674 nm | emission maximum (in CC#N): 673 nm | emission maximum (in Cc1ccccc1): 677 nm | emission maximum (in ClCCl): 672 nm

SMILES: CC1=C2C=CC(C)=[N+]2[B-](F)(F)n2cccc21
emission maximum (in CCCCCC): 504 nm | emission maximum (in CO): 502 nm | emission maximum (in ClCCl): 506 nm

SMILES: N#Cc1c(-n2c3ccc(-c4ccccc4)cc3c3cc(-c4ccccc4)ccc32)c(-n2c3ccccc3c3ccccc32)c(-n2c3ccc(-c4ccccc4)cc3c3cc(-c4ccccc4)ccc32)c(-n2c3ccccc3c3ccccc32)c1-n1c2ccc(-c3ccccc3)cc2c2cc(-c3ccccc3)ccc21
emission maximum (in Cc1ccccc1): 492 nm

SMILES: Cc1ccc(C(=O)/C=C2\C(=O)Nc3ccccc32)cc1C
emission maximum (in C1CCCCC1): 387 nm | emission maximum (in C1COCCO1): 397 nm | emission maximum (in CC#N): 413 nm | emission maximum (in CC(C)(C)O): 400 nm | emission maximum (in CC(C)O): 403 nm | emission maximum (in CCCCCC): 387 nm | emission maximum (in CCCCO): 401 nm | emission maximum (in CCOC(C)=O): 395 nm | emission maximum (in CN(C)C=O): 417 nm | emission maximum (in CO): 399 nm | emission maximum (in ClCCl): 418 nm | emission maximum (in O): 409 nm

SMILES: CCC/N=C/c1cc2ccc(N(C)C)cc2cc1OC
emission maximum (in C1CCOC1): 429 nm | emission maximum (in CC#N): 448 nm | emission maximum (in CC(C)O): 547 nm | emission maximum (in CCOC(C)=O): 441 nm | emission maximum (in CN(C)C=O): 449 nm | emission maximum (in CS(C)=O): 456 nm | emission maximum (in Cc1ccccc1): 418 nm | emission maximum (in ClCCl): 434 nm | emission maximum (in O): 556 nm

SMILES: COc1ccc(C#CC2=C3CCc4ccccc4C3=[O+][B-](F)(F)O2)cc1
emission maximum (in ClCCl): 493 nm

SMILES: c1cc2c3c(c1)-c1cccc4cccc(c14)B3c1cccc3cccc-2c13
emission maximum (in Cc1ccccc1): 491 nm

SMILES: CC1(C)c2ccccc2N(c2ccc(-c3nc(-c4ccccc4)cc(-c4ccccc4)n3)cc2)c2ccccc21
emission maximum (in Cc1ccccc1): 454.83 nm

SMILES: COc1ccc(/C=C/c2cc(/C=C/c3ccc(OC)cc3)nc(/C=C/c3ccc(N(c4ccccc4)c4ccccc4)cc3)n2)cc1
emission maximum (in C1CCOC1): 511 nm | emission maximum (in CC#N): 627 nm | emission maximum (in CC(C)=O): 572 nm | emission maximum (in CCCCCCC): 439 nm | emission maximum (in CS(C)=O): 622 nm | emission maximum (in Cc1ccccc1): 466 nm | emission maximum (in ClCCl): 558 nm
